Measurements reported in patent US20240408051A1, “ADMINISTRATION METHOD OF A CHEMOTHERAPEUTIC AGENT” (priority 2021, published 2024).

Experiments:
[1] = tested on: SW 1088 cells, A-172 cells, U-87 MG cells; assay: Cell viability using MTT dye; assay type: cell-based; conditions: Stiripentol at 250 μ/M; SW 1088, A-172, U-87 MG cells; vs untreated negative control
Experimental: The present disclosure uses Stiripentol as a chemotherapeutic agent to treat brain tumor. Referring to FIG. 1, the cell viability is determined by using MTT dye (3-(4,5-dimethylthiazol-2-yl)-2,5-diphenyltetrazolium bromide and neutral red dye (3-amino-7-dimethylamino-2-methyl-phenazine hydrochloride). Cancer cells from various cell lines (SW 1088 cells, A-172 cells, U-87 MG cells) are incubated with, Stiripentol in the concentration range of 100-250 μ/M. Simultaneously all the cell lines are incubated with etoposide (positive control) in the concentration of 50 μ/M. The cells lines were thereafter treated with 0.05% (w/v) MTT dye for 4 h at 37° C. and DMSO. The cells lines that received no treatment are used as negative control. […] Cells can be incubated with drugs at indicated concentrations and time points. For the MTT assay, at the end of the drug treatments, cells are treated with 0.05% (w/v) MTT dye for 4 h at 37° C. The formazan crystals are dissolved in DMSO and absorbance was measured at 570 nm using the spectrophotometer. Similarly for neutral red assay, Cells are incubated with drugs at indicated concentrations and time points. Briefly, at the end of the drug treatments, cells are incubated with 40 μg/ml neutral red dye for 4 h at 37° C. […] Absorbance was measured at 540 nm using Tecan spectrophotometer.

[2] = tested on: SW 1088 cells, A-172 cells, U-87 MG cells; assay: Cell viability using neutral red dye; assay type: cell-based; conditions: Stiripentol at 250 μ/M; after 24 hours; SW 1088, A-172, U-87 MG cells; vs untreated negative control
Experimental: According to an embodiment the Cell viability can be determined using MTT dye (3-(4,5-dimethylthiazol-2-yl)-2,5-diphenyltetrazolium bromide) and neutral red dye (3-amino-7-dimethylamino-2-methyl-phenazine hydrochloride). Cells can be incubated with drugs at indicated concentrations and time points. For the MTT assay, at the end of the drug treatments, cells are treated with 0.05% (w/v) MTT dye for 4 h at 37° C. The formazan crystals are dissolved in DMSO and absorbance was measured at 570 nm using the spectrophotometer. Similarly for neutral red assay, Cells are incubated with drugs at indicated concentrations and time points. Briefly, at the end of the drug treatments, cells are incubated with 40 μg/ml neutral red dye for 4 h at 37° C. Cells were then destained using a solution (50% ethanol, 49% deionized water, and 1% glacial acetic acid). Absorbance was measured at 540 nm using Tecan spectrophotometer. Referring to FIG. 2, cell viability can be determined by utilizing natural red dye (3-amino-7-dimethylamino-2-methyl-phenazine hydrochloride). Cancer cells from various cell lines namely SW 1088 cells, A-172 cells, U-87 MG cells are incubated with Stiripentol and Doxorubicin (used as positive control) in the concentration range of 50-250 μ/M. thereafter the cells are treated with 40 μg/ml neutral red dye for 4 h at 37° C. and destained. […]

[3] = tested on: SW 1088 cells, A-172 cells, U-87 MG cells; assay: Cell proliferation activity using BrdU assay; assay type: cell-based; conditions: Stiripentol at 250 μ/M; after 72 hours; SW 1088, A-172, U-87 MG cells; vs untreated negative control
Experimental: Referring to FIG. 3, cell proliferative activity of the cancer cells can be determined using BrdU assay. Cancer cells from cell lines namely SW 1088 cells, A-172 cells, U-87 MG cells are incubated with Stiripentol and Doxorubicin (used as positive control) in the concentration range of 50-250 μ/M. The cell lines are treated with 10 micromolar of BrdU for 2 hours and washed with PBS and Formaldehyde. The treated cell lines are incubated with primary antibody and the secondary antibody. The untreated cells lines are used as negative control here.

LDH enzyme from U-87 MG = assay: LDH inhibitory activity; assay type: biochemical; conditions: Stiripentol at 200 μ/M; after 24 hours; 1.7 mM pyruvate, 250 μM β-NADH; homogenized U-87 MG cells
Experimental: Cancer cells up regulate glycolysis to support rapid growth. LDH is an enzyme part of glycolysis. Referring to FIG. 4 LDH inhibitory activity of Stiripentol can be measured by using LDH enzyme from U-87 MG. The cell culture media is treated with HEPES buffer. Cells are homogenized and treated with the respective drug. Cancer cells thereafter are incubated with Oxamate (used as positive control) at 250 μ/M and Stiripentol at 100 and 200 μ/M respectively. The treated cells are mixed with 1.7 mM of pyruvate and 250 μM of β-NADH.

**Q.** How did the “cell viability (MTT dye)” value [1] turn out when `CC(C)(C)C(O)/C=C/c1ccc2c(c1)OCO2` (stereo not shown) [Stiripentol, 4,4-dimethyl-1-[3,4-(methylendioxy)-phenyl]-1penten-3-ol] was run?
**A.** substantial decrease in the cell viability

**Q.** And the “viability of the cancer cells (natural red dye)” value [2]?
**A.** substantial reduction in the viability

**Q.** And the “cell proliferation activity (BrdU)” value [3]?
**A.** substantial reduction in the cell proliferation activity

**Q.** And the “LDH inhibitory activity (production of LDH enzyme)” value (LDH enzyme from U-87 MG)?
**A.** substantial decrease in the production of LDH enzyme
